Measured values taken from PubChem BioAssay (NCI).
Where “and” joins values, the source holds several entries; their conditions need not be identical. Equal values may be shown once.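 Assay format: 96-well plates, 48-hour exposure. Abbreviation: GI50, concentration required for 50% inhibition of growth. At the TGI there is no net growth.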

Tests used:
Test in all cases: DTP human tumour cell line panel, 48 h; in the data active = GI50 below about 0.43 µM; inactive = the rest
[1] = tested on: OVCAR-4 ovarian
[2] = tested on: NCI-H460 lung
[3] = tested on: U251 CNS
[4] = tested on: SK-MEL-2 melanoma
[5] = tested on: BT-549 breast
[6] = tested on: SR leukemia
[7] = tested on: T-47D breast
[8] = tested on: PC-3 prostate
[9] = tested on: UACC-257 melanoma
[10] = tested on: HT29 colon
[11] = tested on: OVCAR-5 ovarian
[12] = tested on: SK-OV-3 ovarian

CCOC(=O)CCc1c(C(=O)OCC)[nH]c(/C=C2/NC(=O)C(C)=C2CC)c1C
39.9 µM: TGI [10]
8.91 µM: TGI [1]
20.4 µM: TGI [6]
24.1 µM: TGI [3]
> 100 µM: TGI [2] | TGI [8] | TGI [11] | TGI [12]
9.59 µM: TGI [7]
6.19 µM: TGI [5]
25.3 µM: TGI [9]
40.9 µM: TGI [4]

O=C(O)CCC(=O)Nc1ccc2c(c1)S(=O)(=O)N(CC(=O)O)C2=O
> 100 µM: TGI [1] | TGI [2] | TGI [3] | TGI [4] | TGI [5] | TGI [6] | TGI [7] | TGI [8] | TGI [9] | TGI [10] | TGI [11] | TGI [12]

Cn1c(=O)nc2n(CCO)c(-c3ccccc3)c(-c3ccccc3)nc-2c1=O
> 100 µM: TGI [1] | TGI [2] | TGI [3] | TGI [4] | TGI [5] | TGI [6] | TGI [7] | TGI [8] | TGI [9] | TGI [10] | TGI [11] | TGI [12]

Cc1c(-c2ccccc2)c(-c2ccc(OCCN(C)C)cc2)n2ccccc12
6.49 µM: TGI [6]
26.1 µM: TGI [1]
28.8 µM: TGI [11]
7.3 µM: TGI [2]
3.46 µM: TGI [10]
30.2 µM: TGI [12]
18.7 µM: TGI [5]
24.7 µM: TGI [3]
4.16 µM: TGI [9]
22.9 µM: TGI [7]
20.3 µM: TGI [8]
21.2 µM: TGI [4]

C[N+](C)(C)CC1Cc2ccccc2C1=O (stereo unspecified)
> 10 µM: TGI [2] | TGI [3] | TGI [4] | TGI [5] | TGI [8] | TGI [9] | TGI [10] | TGI [11] | TGI [12]
7.11 µM: TGI [6]
6.49 µM: TGI [7]
8.07 µM: TGI [1]

Cc1sc2ncnc(NCCc3ccccc3)c2c1C
23.9 µM: TGI [2]
59 µM: TGI [1]
26.7 µM: TGI [3]
31.2 µM: TGI [4]
56.6 µM: TGI [7]
35.8 µM: TGI [11]
26.6 µM: TGI [6]
45.3 µM: TGI [10]
17.3 µM: TGI [9]
62.9 µM: TGI [5]
40.3 µM: TGI [8]
73.4 µM: TGI [12]

CSc1nc(=S)[nH]c2n[nH]c(C)c12
> 100 µM: TGI [1] | TGI [2] | TGI [3] | TGI [4] | TGI [5] | TGI [6] | TGI [7] | TGI [8] | TGI [9] | TGI [10] | TGI [11] | TGI [12]

COc1ccc(NC(=O)C2=C(SC)C(C#N)C(=O)N=C2N)cc1 (stereo unspecified)
> 100 µM: TGI [1] | TGI [2] | TGI [3] | TGI [4] | TGI [5] | TGI [6] | TGI [7] | TGI [8] | TGI [9] | TGI [10] | TGI [11] | TGI [12]

CCOC(=O)CNC(=O)C(CSC(=O)N(O)c1ccc(Br)cc1)NC(=O)CCC(N)C(=O)OCC (stereo unspecified)
> 50 µM: TGI [1] | TGI [2] | TGI [3] | TGI [4] | TGI [5] | TGI [6] | TGI [7] | TGI [8] | TGI [9] | TGI [10] | TGI [11] | TGI [12]

COc1ccccc1NC(=O)C(C#N)=C(SC)SC
> 100 µM: TGI [1] | TGI [2] | TGI [3] | TGI [4] | TGI [5] | TGI [6] | TGI [7] | TGI [8] | TGI [9] | TGI [10] | TGI [11] | TGI [12]

COc1ccc(/C=C/C(=O)NCC(NC(=O)/C=C/c2ccc(OC)c(OC)c2)C(=O)O)cc1OC (stereo unspecified)
> 100 µM: TGI [1] | TGI [2] | TGI [3] | TGI [4] | TGI [5] | TGI [6] | TGI [7] | TGI [8] | TGI [9] | TGI [10] | TGI [11] | TGI [12]

CN(CCO)CC(=O)CC(O)(C(F)(F)F)C(F)(F)F
74.3 µM: TGI [12]
> 100 µM: TGI [1] | TGI [2] | TGI [3] | TGI [5] | TGI [6] | TGI [7] | TGI [9] | TGI [10] | TGI [11]
95.3 µM: TGI [4]
82.8 µM: TGI [8]

CCCCCCC(N)(CCCCCC)C(=O)Nn1c(C)ccc1C
> 100 µM: TGI [1] | TGI [2] | TGI [3] | TGI [4] | TGI [5] | TGI [6] | TGI [7] | TGI [8] | TGI [9] | TGI [10] | TGI [11] | TGI [12]

COC(=O)/C=C/c1cc(OC)c2c(c1)C(C(=O)OC)C(c1ccc(OC)c(OC)c1)O2 (stereo unspecified)
> 100 µM: TGI [1] | TGI [2] | TGI [3] | TGI [4] | TGI [6] | TGI [7] | TGI [8] | TGI [9] | TGI [10] | TGI [11] | TGI [12]
inactive: GI50 [1] 45.9 µM and 8.71 µM | GI50 [2] 48.6 µM and 15.7 µM | GI50 [5] 29 µM and 6.01 µM | GI50 [7] 39.9 µM and 4.16 µM | GI50 [11] > 100 µM
99.6 µM and > 100 µM: TGI [5]

Cc1ccc2c(ccc3c[n+]4ccccc4c(C)c32)c1
25.9 µM: TGI [10]
5.74 µM: TGI [5]
11.6 µM: TGI [4]
12.2 µM: TGI [7]
5.59 µM: TGI [9]
15.9 µM: TGI [8]
12.1 µM: TGI [3]
10.8 µM: TGI [1]
65 µM: TGI [11]
46.3 µM: TGI [6]
44.8 µM: TGI [12]
> 100 µM: TGI [2]

CC(=O)Nc1c(C)cc(OCC(=O)O)cc1C
> 100 µM: TGI [1] | TGI [2] | TGI [3] | TGI [4] | TGI [5] | TGI [6] | TGI [7] | TGI [8] | TGI [9] | TGI [10] | TGI [11] | TGI [12]

CCCCCCCCCC(=O)OCC1(CO)C/C(=C/CC(C(C)C)C(C)C)C(=O)O1 (stereo unspecified)
> 100 µM: TGI [1] | TGI [2] | TGI [4] | TGI [5] | TGI [6] | TGI [7] | TGI [8] | TGI [9] | TGI [10] | TGI [11] | TGI [12]
89.4 µM: TGI [3]

O=C(CNC(=O)OCc1ccccc1)NCCCCC(NC(=O)OCc1ccccc1)C(=O)O (stereo unspecified)
> 100 µM: TGI [1] | TGI [2] | TGI [3] | TGI [4] | TGI [5] | TGI [6] | TGI [7] | TGI [8] | TGI [9] | TGI [10] | TGI [11] | TGI [12]
